From PMC10004634 (PLOS ONE, 2023)
“Also recorded” adds a separate entry of the source.

Legend:
YANK3 = biological target: T1, YANK3 (Homo sapiens, UniProt Q86UX6); assay: biochemical; set-up: KINOMEscan scanMAX competition binding, DNA-tagged kinases, qPCR read-out, percent control at 300 nM; conditions: read-out: Percent control / Acalabrutinib
T1 construct: gene STK32C

SIK2 = SIK2 (Homo sapiens, UniProt Q9H0K1); assay: biochemical; set-up: KINOMEscan scanMAX competition binding, DNA-tagged kinases, qPCR read-out, percent control at 300 nM; conditions: read-out: Percent control / Acalabrutinib
CAMK2G = CAMK2G (Homo sapiens, UniProt Q13555); assay: biochemical; set-up: KINOMEscan scanMAX competition binding, DNA-tagged kinases, qPCR read-out, percent control at 300 nM; conditions: read-out: Percent control / Acalabrutinib
TAOK2 = TAOK2 (Homo sapiens, UniProt Q9UL54); assay: biochemical; set-up: KINOMEscan scanMAX competition binding, DNA-tagged kinases, qPCR read-out, percent control at 300 nM; conditions: read-out: Percent control / Acalabrutinib
EPHA1 = EPHA1 (Homo sapiens, UniProt P21709); assay: biochemical; set-up: KINOMEscan scanMAX competition binding, DNA-tagged kinases, qPCR read-out, percent control at 300 nM; conditions: read-out: Percent control / Acalabrutinib
JNK3 = biological target: T2, JNK3 (Homo sapiens, UniProt P53779); assay: biochemical; set-up: KINOMEscan scanMAX competition binding, DNA-tagged kinases, qPCR read-out, percent control at 300 nM; conditions: read-out: Percent control / Acalabrutinib
T2 construct: gene MAPK10

ABL1-nonphosphorylated = biological target: T3, ABL1-nonphosphorylated (Homo sapiens, UniProt P00519); assay: biochemical; set-up: KINOMEscan scanMAX competition binding, DNA-tagged kinases, qPCR read-out, percent control at 300 nM; conditions: read-out: Percent control / Acalabrutinib
T3 construct: nonphosphorylated

YES = biological target: T4, YES (Homo sapiens, UniProt P07947); assay: biochemical; set-up: KINOMEscan scanMAX competition binding, DNA-tagged kinases, qPCR read-out, percent control at 300 nM; conditions: read-out: Percent control / Tirabrutinib
T4 construct: gene YES1

PRKR = biological target: T5, PRKR (Homo sapiens, UniProt P19525); assay: biochemical; set-up: KINOMEscan scanMAX competition binding, DNA-tagged kinases, qPCR read-out, percent control at 300 nM; conditions: read-out: Percent control / Tirabrutinib
T5 construct: gene EIF2AK2

TMD8 cells = assay: RT-qPCR of IRF4, BCL6, MYC mRNA; type: cell-based, human; conditions: 24 h
Experimental: After culturing, total RNA was isolated from cells using the RNeasy Plus Mini Kit (Qiagen), then cDNA was prepared from total RNA using the SuperScript VILO cDNA Synthesis Kit (Invitrogen) following the kit instructions. For quantification of each mRNA expression level, PCR was performed using TaqMan Fast Universal PCR Master Mix (Thermo Fisher Scientific) under the following conditions with the AriaMx Real Time PCR System (Agilent Technologies): 95°C for 3 min, followed by 40 cycles at 95°C for 5 s and 60°C for 20 s with continuous fluorescence measurement. All PCRs were performed in triplicate, and the mRNA expression of GAPDH was used as an internal control. The results (fold changes of the threshold cycle [Ct] relative to the control group) were obtained using the 2^−ΔΔCt method. The TaqMan probes for IRF4 (Assay ID: Hs00180031_m1), BCL6 (Assay ID: Hs00153368_m1), MYC (Assay ID: Hs00153408_m1), and GAPDH (Assay ID: Hs02786624_g1) were purchased from Thermo Fisher Scientific. Statistical tests were performed with the SAS 9.4 (SAS Institute Japan Ltd., Tokyo, Japan) TS1M4-based EXSUS system version 10.1.3 (CAC Corporation, Tokyo, Japan). The t-test or Dunnett test was used to compare mRNA expression in the DMSO- and compound-treated groups. The statistical tests were two-sided with a 5% significance level.

CDC2L5 = biological target: T6, CDC2L5 (Homo sapiens, UniProt Q14004); assay: biochemical; set-up: KINOMEscan scanMAX competition binding, DNA-tagged kinases, qPCR read-out, percent control at 300 nM; conditions: read-out: Percent control / Zanubrutinib
T6 construct: gene CDK13

TNK1 = TNK1 (Homo sapiens, UniProt Q13470); assay: biochemical; set-up: KINOMEscan scanMAX competition binding, DNA-tagged kinases, qPCR read-out, percent control at 300 nM; conditions: read-out: Percent control / Zanubrutinib
PCTK1 = biological target: T7, PCTK1 (Homo sapiens, UniProt Q00536); assay: biochemical; set-up: KINOMEscan scanMAX competition binding, DNA-tagged kinases, qPCR read-out, percent control at 300 nM; conditions: read-out: Percent control / Zanubrutinib
T7 construct: gene CDK16

NEK6 = NEK6 (Homo sapiens, UniProt Q9HC98); assay: biochemical; set-up: KINOMEscan scanMAX competition binding, DNA-tagged kinases, qPCR read-out, percent control at 300 nM; conditions: read-out: Percent control / Zanubrutinib
HIPK2 = HIPK2 (Homo sapiens, UniProt Q9H2X6); assay: biochemical; set-up: KINOMEscan scanMAX competition binding, DNA-tagged kinases, qPCR read-out, percent control at 300 nM; conditions: read-out: Percent control / Zanubrutinib
PRKG2 = PRKG2 (Homo sapiens, UniProt Q13237); assay: biochemical; set-up: KINOMEscan scanMAX competition binding, DNA-tagged kinases, qPCR read-out, percent control at 300 nM; conditions: read-out: Percent control / Zanubrutinib
CDK4-cyclinD1 = biological target: T8, CDK4-cyclinD1 (Homo sapiens, UniProt P11802); assay: biochemical; set-up: KINOMEscan scanMAX competition binding, DNA-tagged kinases, qPCR read-out, percent control at 300 nM; conditions: read-out: Percent control / Zanubrutinib
T8 construct: cyclinD1

LRRK2(G2019S) = LRRK2(G2019S) (Homo sapiens, UniProt Q5S007, G2019S); assay: biochemical; set-up: KINOMEscan scanMAX competition binding, DNA-tagged kinases, qPCR read-out, percent control at 300 nM; conditions: read-out: Percent control / Zanubrutinib
STK39 = STK39 (Homo sapiens, UniProt Q9UEW8); assay: biochemical; set-up: KINOMEscan scanMAX competition binding, DNA-tagged kinases, qPCR read-out, percent control at 300 nM; conditions: read-out: Percent control / Zanubrutinib
[1] = tirabrutinib 1 μM, BMS-345541 10 μM, MK-2206 1 μM, refametinib 0.1 μM

T3 sequence (P00519 whole entry): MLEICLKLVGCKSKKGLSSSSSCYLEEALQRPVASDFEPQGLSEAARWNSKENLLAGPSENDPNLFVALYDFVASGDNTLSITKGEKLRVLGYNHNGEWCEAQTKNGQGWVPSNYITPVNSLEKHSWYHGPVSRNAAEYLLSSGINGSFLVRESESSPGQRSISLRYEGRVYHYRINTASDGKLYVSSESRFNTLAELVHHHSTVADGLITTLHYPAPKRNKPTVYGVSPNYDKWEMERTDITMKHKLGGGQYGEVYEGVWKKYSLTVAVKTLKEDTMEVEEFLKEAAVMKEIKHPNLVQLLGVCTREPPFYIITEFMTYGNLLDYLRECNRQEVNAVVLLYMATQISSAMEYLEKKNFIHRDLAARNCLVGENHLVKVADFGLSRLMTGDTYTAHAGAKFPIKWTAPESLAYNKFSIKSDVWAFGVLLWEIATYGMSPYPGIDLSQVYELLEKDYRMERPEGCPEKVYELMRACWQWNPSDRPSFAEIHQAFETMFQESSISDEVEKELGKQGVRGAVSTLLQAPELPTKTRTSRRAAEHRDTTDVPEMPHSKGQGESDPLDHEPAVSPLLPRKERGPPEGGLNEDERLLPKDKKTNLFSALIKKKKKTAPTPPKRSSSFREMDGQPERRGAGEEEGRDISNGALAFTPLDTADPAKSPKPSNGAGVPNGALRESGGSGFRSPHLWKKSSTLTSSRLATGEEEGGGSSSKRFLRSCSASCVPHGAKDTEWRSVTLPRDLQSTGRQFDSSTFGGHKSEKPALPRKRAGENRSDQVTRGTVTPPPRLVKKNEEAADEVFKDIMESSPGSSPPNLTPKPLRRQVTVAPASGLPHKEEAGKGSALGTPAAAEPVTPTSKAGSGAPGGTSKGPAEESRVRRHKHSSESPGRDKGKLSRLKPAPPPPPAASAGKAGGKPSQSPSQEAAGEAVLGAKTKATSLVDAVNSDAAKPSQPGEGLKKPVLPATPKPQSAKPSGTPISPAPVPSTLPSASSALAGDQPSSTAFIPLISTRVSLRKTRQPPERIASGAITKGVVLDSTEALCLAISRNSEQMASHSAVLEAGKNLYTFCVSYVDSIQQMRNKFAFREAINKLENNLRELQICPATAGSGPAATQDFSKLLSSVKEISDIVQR
T1 sequence (Q86UX6 whole entry): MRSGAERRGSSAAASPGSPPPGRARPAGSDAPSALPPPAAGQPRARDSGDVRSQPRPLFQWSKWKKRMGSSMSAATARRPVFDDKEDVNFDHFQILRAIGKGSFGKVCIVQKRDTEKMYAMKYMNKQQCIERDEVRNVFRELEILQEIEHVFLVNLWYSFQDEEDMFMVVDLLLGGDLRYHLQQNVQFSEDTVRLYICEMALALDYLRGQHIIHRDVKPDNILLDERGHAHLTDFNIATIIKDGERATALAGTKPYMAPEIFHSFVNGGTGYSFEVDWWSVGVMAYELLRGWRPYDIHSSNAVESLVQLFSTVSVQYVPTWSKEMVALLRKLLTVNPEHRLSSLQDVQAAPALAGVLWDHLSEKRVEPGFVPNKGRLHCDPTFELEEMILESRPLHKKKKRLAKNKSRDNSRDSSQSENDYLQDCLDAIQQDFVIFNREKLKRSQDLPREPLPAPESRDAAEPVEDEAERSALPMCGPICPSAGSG
T7 sequence (Q00536 whole entry): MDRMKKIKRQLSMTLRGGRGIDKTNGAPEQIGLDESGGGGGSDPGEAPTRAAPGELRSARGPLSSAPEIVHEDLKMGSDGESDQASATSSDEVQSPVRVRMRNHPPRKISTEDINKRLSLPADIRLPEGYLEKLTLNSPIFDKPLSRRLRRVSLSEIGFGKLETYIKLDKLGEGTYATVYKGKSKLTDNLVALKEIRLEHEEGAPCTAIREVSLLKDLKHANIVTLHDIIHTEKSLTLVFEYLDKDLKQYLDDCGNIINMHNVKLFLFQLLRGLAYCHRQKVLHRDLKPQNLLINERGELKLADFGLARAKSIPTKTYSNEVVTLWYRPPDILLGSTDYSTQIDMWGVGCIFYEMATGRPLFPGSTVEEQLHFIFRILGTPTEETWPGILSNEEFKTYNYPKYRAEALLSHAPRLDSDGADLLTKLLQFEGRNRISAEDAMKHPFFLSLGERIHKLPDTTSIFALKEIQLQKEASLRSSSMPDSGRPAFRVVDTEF
T4 sequence (P07947 whole entry): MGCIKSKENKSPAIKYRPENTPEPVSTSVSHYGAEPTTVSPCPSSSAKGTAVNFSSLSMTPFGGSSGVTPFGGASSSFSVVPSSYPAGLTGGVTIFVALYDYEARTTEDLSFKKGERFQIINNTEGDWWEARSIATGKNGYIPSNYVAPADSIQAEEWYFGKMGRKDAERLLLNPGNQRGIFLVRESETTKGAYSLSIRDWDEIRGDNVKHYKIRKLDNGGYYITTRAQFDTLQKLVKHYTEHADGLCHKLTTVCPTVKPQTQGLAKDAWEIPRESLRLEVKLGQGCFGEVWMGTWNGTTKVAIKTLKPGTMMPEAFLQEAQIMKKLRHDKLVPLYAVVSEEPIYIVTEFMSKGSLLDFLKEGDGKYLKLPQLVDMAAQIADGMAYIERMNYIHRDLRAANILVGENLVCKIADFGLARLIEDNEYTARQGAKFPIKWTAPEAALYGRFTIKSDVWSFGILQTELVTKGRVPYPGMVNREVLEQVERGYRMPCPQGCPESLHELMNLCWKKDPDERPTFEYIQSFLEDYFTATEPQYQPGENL
T5 sequence (P19525 whole entry): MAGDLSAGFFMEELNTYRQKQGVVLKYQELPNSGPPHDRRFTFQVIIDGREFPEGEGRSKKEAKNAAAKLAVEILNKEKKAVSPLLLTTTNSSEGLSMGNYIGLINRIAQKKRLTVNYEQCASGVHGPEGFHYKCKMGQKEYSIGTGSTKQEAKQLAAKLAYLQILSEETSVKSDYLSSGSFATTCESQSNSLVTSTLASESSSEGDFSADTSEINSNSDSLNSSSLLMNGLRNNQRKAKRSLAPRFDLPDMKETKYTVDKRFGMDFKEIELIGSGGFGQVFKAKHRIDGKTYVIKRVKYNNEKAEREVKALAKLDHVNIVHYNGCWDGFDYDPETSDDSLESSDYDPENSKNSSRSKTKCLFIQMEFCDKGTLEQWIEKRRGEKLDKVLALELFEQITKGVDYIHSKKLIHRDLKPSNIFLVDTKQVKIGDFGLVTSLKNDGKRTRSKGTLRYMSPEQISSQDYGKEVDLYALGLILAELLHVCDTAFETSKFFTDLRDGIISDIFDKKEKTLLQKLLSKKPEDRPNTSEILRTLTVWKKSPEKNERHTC
T6 sequence (Q14004 whole entry): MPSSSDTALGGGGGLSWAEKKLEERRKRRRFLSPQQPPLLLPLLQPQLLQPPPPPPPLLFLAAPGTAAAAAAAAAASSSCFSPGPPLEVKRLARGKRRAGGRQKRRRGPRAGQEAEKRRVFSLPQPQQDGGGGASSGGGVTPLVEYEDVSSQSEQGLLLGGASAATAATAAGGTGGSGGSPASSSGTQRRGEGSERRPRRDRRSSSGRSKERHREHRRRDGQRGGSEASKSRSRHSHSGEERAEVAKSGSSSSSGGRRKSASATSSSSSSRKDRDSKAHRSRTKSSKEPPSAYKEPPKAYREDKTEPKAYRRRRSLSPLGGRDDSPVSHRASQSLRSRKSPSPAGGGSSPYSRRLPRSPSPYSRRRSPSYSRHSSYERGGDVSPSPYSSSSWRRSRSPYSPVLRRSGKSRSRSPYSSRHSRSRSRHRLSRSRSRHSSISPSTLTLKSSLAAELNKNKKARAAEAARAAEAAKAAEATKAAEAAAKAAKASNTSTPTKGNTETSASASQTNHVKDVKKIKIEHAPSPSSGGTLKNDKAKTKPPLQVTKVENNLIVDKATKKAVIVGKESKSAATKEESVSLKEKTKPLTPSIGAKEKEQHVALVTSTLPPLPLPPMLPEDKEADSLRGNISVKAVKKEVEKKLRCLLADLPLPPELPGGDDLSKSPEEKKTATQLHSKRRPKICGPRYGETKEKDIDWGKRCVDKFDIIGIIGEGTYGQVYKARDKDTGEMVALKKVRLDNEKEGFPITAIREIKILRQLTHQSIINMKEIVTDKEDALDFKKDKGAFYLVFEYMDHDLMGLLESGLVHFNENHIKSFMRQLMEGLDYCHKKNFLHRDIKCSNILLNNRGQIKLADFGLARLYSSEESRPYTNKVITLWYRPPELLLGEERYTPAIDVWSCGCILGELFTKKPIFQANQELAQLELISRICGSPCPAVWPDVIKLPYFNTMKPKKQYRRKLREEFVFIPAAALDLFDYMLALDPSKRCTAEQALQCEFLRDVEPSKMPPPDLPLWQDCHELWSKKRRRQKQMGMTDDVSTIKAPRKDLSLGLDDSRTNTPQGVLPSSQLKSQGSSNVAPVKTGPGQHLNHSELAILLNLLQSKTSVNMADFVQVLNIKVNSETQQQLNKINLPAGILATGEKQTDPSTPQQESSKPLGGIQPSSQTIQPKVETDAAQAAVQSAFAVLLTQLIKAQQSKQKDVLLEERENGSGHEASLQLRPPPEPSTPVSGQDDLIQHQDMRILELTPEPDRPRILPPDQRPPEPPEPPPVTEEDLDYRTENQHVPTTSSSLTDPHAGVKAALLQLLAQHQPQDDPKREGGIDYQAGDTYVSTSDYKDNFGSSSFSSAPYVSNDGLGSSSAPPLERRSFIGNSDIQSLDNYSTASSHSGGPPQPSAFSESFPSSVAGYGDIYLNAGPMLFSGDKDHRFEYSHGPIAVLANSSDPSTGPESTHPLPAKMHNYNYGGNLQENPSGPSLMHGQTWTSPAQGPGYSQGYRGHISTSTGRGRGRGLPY
Chain of NEK6 (Q9HC98 whole entry): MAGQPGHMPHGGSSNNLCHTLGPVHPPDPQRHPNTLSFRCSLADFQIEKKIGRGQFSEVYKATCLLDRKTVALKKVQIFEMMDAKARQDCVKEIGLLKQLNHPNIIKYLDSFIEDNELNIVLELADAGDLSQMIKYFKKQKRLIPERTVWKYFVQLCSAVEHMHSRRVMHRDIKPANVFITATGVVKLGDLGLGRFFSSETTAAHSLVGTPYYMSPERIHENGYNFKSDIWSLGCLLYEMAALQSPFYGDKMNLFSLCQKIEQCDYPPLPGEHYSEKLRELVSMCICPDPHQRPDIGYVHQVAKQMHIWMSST

## CC#CC(=O)N1CCC[C@H]1c1nc(-c2ccc(C(=O)Nc3ccccn3)cc2)c2c(N)nccn12 [Acalabrutinib]
YANK3
  remaining binding at 0.3 µM: 84%
SIK2
  remaining binding at 0.3 µM: 90%
CAMK2G
  remaining binding at 0.3 µM: 95%
TAOK2
  remaining binding at 0.3 µM: 93%
EPHA1
  remaining binding at 0.3 µM: 85%
JNK3
  remaining binding at 0.3 µM: 94%
ABL1-nonphosphorylated
  remaining binding at 0.3 µM: 87%

## CC#CC(=O)N1CC[C@@H](n2c(=O)n(-c3ccc(Oc4ccccc4)cc3)c3c(N)ncnc32)C1 [Tirabrutinib]
YES
  remaining binding at 0.3 µM: 71%
PRKR
  remaining binding at 0.3 µM: 93%
TMD8 cells; 1 μM
  BCL6 mRNA expression: upregulated
TMD8 cells; [1]
  IRF4 mRNA expression: downregulated; also recorded: strongly inhibited
  MYC mRNA expression: partially downregulated

## C=CC(=O)N1CCC([C@@H]2CCNc3c(C(N)=O)c(-c4ccc(Oc5ccccc5)cc4)nn32)CC1 [Zanubrutinib]
CDC2L5
  remaining binding at 0.3 µM: 99%
TNK1
  remaining binding at 0.3 µM: 93%
PCTK1
  remaining binding at 0.3 µM: 100%
NEK6
  remaining binding at 0.3 µM: 88%
HIPK2
  remaining binding at 0.3 µM: 87%
PRKG2
  remaining binding at 0.3 µM: 85%
CDK4-cyclinD1
  remaining binding at 0.3 µM: 80%
LRRK2(G2019S)
  remaining binding at 0.3 µM: 47%
STK39
  remaining binding at 0.3 µM: 96%
